Laboratory results as given in ChEMBL document CHEMBL5465560, “Selectivity Literature for EUbOPEN Chemogenomic Library” (2024).
Each block holds one compound with its values, some of them ahead of it.

Tests used:
[1] = biological target: Histamine H2 receptor (Homo sapiens) (UniProt P25021); assay: Selectivity interaction (Eurofins CEREP Diversity Profile (receptors and ion channels)) EUB0000279b HRH2; details: at 10 µM
[2] = biological target: Fibroblast growth factor receptor 4 (Homo sapiens, UniProt P22455); assay: Selectivity interaction (KinomeScan (DiscoverX)) EUB0001619a FGFR4; details: at 1 µM
[3] = biological target: T1, PAN2-PAN3 deadenylation complex subunit PAN3 (Homo sapiens) (UniProt Q58A45); assay: Selectivity interaction (ActivX KiNativ screen (ex vivo kinase selectivity in human PBMCs)) EUB0001619a PAN3; assay type: cell-based; details: PBMC, at 1 µM
T1 sequence (whole entry): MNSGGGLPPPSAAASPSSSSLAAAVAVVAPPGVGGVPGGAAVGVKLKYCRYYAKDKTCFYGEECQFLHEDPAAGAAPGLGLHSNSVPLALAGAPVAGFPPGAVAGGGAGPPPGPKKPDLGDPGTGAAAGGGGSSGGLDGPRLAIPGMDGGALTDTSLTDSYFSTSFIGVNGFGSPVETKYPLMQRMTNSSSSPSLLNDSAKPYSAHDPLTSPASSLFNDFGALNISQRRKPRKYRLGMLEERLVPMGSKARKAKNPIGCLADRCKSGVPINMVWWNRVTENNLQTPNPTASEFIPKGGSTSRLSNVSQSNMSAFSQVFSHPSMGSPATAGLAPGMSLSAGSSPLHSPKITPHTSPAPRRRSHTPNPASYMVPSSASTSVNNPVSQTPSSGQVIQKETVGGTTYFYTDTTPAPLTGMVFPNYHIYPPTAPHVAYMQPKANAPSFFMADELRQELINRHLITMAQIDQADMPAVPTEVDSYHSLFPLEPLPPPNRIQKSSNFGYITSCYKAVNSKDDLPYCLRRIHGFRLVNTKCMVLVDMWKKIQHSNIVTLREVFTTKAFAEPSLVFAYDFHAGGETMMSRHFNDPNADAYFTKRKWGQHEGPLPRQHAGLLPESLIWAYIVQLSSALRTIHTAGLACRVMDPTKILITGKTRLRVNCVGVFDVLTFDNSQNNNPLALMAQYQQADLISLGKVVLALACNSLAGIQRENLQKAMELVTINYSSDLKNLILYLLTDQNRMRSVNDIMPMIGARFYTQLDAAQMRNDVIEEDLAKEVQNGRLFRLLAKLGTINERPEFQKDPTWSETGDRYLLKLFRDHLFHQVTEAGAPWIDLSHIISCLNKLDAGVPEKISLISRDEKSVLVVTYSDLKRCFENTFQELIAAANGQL

[4] = biological target: Non-receptor tyrosine-protein kinase TYK2 (Homo sapiens, UniProt P29597); assay: Selectivity interaction (ActivX KiNativ screen (kinase selectivity in THP-1 cell lysates)) EUB0000639a TYK2; assay type: subcellular; details: lysate, at 0.04 µM
[5] = biological target: T2, Mitogen-activated protein kinase kinase kinase 5 (Homo sapiens) (UniProt Q99683); assay: Selectivity interaction (ActivX KiNativ screen (kinase selectivity in THP-1 cell lysates)) EUB0000639a MAP3K5; assay type: subcellular; details: lysate
T2 sequence (whole entry): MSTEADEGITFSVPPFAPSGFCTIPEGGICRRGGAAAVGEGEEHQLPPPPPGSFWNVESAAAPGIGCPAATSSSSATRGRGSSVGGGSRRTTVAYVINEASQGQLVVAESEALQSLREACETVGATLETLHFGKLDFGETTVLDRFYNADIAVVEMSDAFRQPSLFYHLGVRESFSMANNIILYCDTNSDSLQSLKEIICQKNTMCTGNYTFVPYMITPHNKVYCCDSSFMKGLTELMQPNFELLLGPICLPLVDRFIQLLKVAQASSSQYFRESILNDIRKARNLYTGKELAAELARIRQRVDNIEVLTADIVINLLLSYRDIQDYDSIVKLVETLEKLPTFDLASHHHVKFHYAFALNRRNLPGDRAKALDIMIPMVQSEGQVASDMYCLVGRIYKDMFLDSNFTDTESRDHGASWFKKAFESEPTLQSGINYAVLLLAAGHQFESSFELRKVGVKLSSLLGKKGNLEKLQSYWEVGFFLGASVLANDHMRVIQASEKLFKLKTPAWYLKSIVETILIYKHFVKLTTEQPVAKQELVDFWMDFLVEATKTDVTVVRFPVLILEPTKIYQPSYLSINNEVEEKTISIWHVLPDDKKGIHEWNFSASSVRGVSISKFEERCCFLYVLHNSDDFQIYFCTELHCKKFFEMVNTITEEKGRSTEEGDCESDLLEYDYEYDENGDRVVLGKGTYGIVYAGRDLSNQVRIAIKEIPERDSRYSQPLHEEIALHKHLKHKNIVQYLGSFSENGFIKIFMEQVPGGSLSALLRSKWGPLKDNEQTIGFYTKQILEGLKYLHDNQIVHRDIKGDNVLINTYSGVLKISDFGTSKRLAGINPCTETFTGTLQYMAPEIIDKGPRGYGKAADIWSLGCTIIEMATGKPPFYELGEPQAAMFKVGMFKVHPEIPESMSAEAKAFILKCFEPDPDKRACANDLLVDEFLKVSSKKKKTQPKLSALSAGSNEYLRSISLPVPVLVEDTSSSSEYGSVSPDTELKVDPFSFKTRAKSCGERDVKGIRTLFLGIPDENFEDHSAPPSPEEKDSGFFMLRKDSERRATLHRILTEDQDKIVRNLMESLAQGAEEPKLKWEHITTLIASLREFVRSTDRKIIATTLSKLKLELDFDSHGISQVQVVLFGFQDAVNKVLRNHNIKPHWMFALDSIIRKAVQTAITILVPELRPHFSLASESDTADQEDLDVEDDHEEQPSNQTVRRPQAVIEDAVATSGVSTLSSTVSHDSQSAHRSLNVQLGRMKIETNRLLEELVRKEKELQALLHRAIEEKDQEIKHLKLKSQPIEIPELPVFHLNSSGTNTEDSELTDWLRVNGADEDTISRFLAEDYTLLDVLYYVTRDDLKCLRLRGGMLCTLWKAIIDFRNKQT

[6] = biological target: RAC-gamma serine/threonine-protein kinase (Homo sapiens, UniProt Q9Y243); assay: Selectivity interaction (KinomeScan (DiscoverX)) EUB0001049a AKT3; details: at 1 µM
[7] = biological target: Tyrosine-protein kinase receptor Tie-1 (Homo sapiens) (UniProt P35590); assay: Selectivity interaction (KinomeScan (DiscoverX)) EUB0000666a TIE1; details: at 10 µM
[8] = biological target: Protein kinase C gamma type (Homo sapiens) (UniProt P05129); assay: Selectivity interaction (Kinase panel (Z-LYTE Assay)) EUB0001632a PRKCG; details: at 10 µM

RAC-gamma serine/threonine-protein kinase, sequence (Q9Y243 whole entry): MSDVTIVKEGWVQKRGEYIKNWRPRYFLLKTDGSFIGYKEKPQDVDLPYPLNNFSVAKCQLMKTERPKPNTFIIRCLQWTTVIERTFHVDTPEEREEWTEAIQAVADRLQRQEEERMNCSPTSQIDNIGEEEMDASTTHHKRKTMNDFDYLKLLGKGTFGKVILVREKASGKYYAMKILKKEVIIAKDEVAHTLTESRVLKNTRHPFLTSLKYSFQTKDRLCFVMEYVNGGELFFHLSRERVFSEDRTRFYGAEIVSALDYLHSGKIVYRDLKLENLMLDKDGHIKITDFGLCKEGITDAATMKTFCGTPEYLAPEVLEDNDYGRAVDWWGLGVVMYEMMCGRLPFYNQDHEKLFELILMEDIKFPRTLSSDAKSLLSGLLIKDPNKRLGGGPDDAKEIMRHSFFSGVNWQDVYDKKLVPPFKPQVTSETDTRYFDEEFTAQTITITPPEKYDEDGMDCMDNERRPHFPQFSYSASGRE
Histamine H2 receptor (Homo sapiens), sequence (P25021 whole entry): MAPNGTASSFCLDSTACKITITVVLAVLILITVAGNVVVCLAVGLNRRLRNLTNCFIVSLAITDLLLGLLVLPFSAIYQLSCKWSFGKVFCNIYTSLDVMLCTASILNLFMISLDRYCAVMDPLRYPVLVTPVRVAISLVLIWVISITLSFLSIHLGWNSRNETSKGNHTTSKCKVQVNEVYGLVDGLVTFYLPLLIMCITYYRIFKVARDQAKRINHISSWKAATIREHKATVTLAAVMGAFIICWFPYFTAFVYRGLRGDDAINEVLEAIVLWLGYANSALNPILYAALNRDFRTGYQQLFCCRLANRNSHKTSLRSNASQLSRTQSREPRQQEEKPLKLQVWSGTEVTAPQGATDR
Fibroblast growth factor receptor 4, sequence (P22455 22-802 limits assumed): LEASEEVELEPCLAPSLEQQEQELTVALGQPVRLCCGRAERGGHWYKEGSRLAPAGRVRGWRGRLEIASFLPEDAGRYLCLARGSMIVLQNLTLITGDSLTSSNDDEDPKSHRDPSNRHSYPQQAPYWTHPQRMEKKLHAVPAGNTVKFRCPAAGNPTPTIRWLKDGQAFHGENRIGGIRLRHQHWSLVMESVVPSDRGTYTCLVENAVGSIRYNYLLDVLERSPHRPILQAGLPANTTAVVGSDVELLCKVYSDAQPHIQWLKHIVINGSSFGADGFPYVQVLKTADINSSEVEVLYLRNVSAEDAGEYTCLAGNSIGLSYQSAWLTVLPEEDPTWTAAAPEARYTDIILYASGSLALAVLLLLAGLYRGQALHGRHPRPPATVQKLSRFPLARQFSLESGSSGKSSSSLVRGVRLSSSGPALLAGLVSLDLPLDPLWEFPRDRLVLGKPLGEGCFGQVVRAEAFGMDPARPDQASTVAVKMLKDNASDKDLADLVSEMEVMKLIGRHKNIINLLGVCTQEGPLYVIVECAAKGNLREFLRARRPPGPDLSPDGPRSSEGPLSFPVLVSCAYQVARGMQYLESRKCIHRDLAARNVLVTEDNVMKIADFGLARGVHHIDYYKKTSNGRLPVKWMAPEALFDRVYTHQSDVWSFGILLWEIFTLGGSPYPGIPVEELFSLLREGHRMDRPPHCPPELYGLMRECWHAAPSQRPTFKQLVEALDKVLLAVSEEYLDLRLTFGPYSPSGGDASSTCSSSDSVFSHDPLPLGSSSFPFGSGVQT
Tyrosine-protein kinase receptor Tie-1 (Homo sapiens), sequence (P35590 whole entry): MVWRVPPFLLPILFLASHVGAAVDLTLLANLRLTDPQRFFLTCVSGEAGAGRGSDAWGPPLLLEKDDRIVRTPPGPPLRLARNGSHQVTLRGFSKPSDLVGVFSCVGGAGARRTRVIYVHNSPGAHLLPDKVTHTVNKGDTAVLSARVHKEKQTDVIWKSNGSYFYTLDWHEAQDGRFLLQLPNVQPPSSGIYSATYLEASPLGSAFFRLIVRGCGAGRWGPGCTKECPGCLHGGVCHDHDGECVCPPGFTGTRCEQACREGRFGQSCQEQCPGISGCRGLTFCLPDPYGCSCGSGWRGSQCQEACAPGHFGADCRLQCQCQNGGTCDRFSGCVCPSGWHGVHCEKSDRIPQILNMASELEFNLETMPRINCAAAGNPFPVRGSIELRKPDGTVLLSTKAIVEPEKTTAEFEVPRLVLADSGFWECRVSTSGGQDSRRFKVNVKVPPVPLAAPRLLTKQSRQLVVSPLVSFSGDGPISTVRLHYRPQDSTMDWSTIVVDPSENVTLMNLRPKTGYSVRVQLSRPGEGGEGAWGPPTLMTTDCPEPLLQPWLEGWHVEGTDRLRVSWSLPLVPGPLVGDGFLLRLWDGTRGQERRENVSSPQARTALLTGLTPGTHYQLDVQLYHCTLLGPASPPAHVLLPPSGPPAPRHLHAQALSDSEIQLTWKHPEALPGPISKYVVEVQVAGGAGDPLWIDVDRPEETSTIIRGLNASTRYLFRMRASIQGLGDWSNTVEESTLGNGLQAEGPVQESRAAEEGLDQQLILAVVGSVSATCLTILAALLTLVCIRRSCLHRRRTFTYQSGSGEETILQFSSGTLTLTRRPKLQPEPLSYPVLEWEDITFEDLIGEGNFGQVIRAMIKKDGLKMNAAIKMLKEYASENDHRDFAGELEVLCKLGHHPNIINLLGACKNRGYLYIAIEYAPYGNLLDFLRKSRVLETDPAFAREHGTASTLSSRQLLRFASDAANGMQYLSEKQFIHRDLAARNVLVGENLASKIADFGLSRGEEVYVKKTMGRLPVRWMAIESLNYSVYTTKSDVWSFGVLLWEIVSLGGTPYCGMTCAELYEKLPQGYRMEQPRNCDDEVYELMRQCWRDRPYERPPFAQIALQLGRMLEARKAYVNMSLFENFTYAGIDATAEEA
Non-receptor tyrosine-protein kinase TYK2, sequence (P29597 whole entry): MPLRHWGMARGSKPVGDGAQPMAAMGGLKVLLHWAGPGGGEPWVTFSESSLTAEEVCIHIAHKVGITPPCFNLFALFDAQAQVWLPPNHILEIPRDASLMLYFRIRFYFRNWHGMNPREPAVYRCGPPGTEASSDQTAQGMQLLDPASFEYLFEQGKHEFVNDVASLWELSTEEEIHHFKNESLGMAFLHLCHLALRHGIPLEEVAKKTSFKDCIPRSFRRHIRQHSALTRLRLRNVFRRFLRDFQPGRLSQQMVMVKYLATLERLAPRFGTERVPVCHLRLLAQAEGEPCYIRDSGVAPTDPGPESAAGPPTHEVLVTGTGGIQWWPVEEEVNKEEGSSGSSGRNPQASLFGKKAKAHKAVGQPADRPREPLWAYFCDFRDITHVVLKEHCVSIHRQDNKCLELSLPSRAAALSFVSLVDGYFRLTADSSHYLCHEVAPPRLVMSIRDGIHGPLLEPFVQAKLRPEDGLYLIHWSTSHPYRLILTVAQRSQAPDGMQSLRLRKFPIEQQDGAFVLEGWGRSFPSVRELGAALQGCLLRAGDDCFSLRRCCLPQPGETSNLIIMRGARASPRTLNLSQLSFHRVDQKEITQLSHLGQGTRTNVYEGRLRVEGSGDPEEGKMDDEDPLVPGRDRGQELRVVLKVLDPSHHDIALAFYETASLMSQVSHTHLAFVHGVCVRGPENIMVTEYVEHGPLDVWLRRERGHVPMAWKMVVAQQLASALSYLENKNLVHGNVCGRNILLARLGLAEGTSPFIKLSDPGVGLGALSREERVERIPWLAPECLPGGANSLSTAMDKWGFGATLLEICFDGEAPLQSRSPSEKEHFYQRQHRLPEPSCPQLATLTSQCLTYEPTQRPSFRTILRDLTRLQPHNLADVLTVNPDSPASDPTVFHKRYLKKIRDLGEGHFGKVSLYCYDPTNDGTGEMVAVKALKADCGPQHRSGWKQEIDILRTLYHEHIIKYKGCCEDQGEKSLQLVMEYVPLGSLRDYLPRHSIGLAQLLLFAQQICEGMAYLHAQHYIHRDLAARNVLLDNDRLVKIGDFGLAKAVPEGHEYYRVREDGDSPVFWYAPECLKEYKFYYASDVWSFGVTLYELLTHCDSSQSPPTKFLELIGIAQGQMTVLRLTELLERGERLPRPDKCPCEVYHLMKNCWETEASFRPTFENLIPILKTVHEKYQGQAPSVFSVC

- % of control [1]: 115%
SMILES: CC(=O)c1cc(-c2ccccc2OCC2CC2)c2ncccn12

SMILES: N#Cc1cccc(-c2c[nH]c3ncnc(N4CCOCC4)c23)c1
- % of control [2]: 74%
- % of inhibition [3]: 15%

- % of inhibition [4]: 6.4%
- % of inhibition ([5]; at 0.01 µM): -12.1%
- % of inhibition ([5]; at 0.04 µM): -3.2%
- % of inhibition ([5]; at 0.2 µM): 0%
- % of inhibition ([5]; at 1 µM): -6.5%
- % of inhibition ([5]; at 5 µM): -21.9%
SMILES: CC[C@@H]1[C@H](F)C(=O)N[C@@H]1COc1nccc2cc(C(N)=O)c(OC)cc12 [ZIMLOVISERTIB]

SMILES: COc1cc(Nc2nc(C)cc(-c3cnn4nc(OC)ccc34)n2)cc(C(F)(F)F)c1
- % of control [6]: 96%

SMILES: O=C(NOC[C@H](O)CO)c1ccc(F)c(F)c1Nc1ccc(I)cc1F
- % of control [7]: 54%

- % of control [8]: 11.7%
SMILES: Cn1cc(-n2cnc3c(NCc4nc5cc(Cl)c(Cl)cc5[nH]4)nc(N4CCOCC4)nc32)cn1
